Data published in patent publication US12565510B2, “Phospholipid” (NIPPON FINE CHEMICAL CO., LTD., priority 2021, dated 2026).

How the values were obtained:
[1] = Measurement of particle size and polydispersity index of lipid particles (Zetasizer Nano ZS); assay type: physicochemical; conditions: siRNA-containing lipid particles made with the named phospholipid A, phospholipid B and cholesterol; for PDI / Particle size (nm): diluted 50-fold with RNase-free water
Method: (§1) siRNA was added to 1 mM citrate buffer (pH 4.0), thereby preparing an acidic aqueous solution of siRNA (25° C., siRNA concentration: 301.2 nM). Separately, lipids were added to ethanol, thereby preparing a phospholipid alcohol solution (25° C., lipid concentration: 2.5 mM). The molar ratios of lipids were (1) DHSM-DEDA:DHSM:cholesterol (Chol)=45:10:45, (2) DHSM-PPZ:DOPC:cholesterol (Chol)=45:10:60, and (3) DOP-DEDA:DPPC:cholesterol (Chol)=45:10:45. A 4.15-fold volume of the acidic aqueous solution of siRNA was added to the phospholipid alcohol solution (siRNA/lipid molar ratio=1/7000), and a microchannel (KeyChem-Basic, YMC Co., Ltd.) was used to obtain lipid particles. Finally, ethanol was removed by dialysis.
The lipid particles were diluted 50-fold with RNase-free water, and then the particle size and polydispersity index (PDI) were measured with a Zetasizer Nano ZS (Malvern). The lipid particles were also diluted 50-fold with a buffer (pH=4.0, 5.0, 6.0, or 7.0), and the ζ-potential was then measured.

[2] = siRNA encapsulation efficiency of lipid particles (RiboGreen reagent); assay type: physicochemical; conditions: siRNA-containing lipid particles made with the named phospholipid A; siRNA/lipid molar ratio 1/7000; with or without 2% Triton-X 100
Method: as §1
Further, the encapsulation efficiency of siRNA was measured in the following manner. The measurement was performed using an RNA assay reagent (RiboGreen reagent, Thermo Fisher Scientific), specifically as described below. […] The plate was shaken for 5 minutes, and the fluorescence intensity in each well was measured. The encapsulation efficiency of siRNA in the lipid particles was calculated using the following equation: the encapsulation efficiency (%)=(the fluorescence intensity of total siRNA−the fluorescence intensity of free siRNA)/(the fluorescence intensity of total siRNA), with the measured fluorescence intensity.

Molecule	Particle size distribution [1]	PDI [1]	Particle size (nm) [1] [nm]	siRNA encapsulation efficiency (%) [2] [%]
CCCCCCCCCCCCCCCCCC(=O)N[C@@H](COP(=O)(O)OCCNCCN)[C@H](O)CCCCCCCCCCCCCCC [DHSM-DEDA, (2S,3R)-3-hydroxy-2-stearamidooctadecyl (2-(2′-aminoethylenamine)ethyl) phosphate]	Double peak	0.09 ± 0.03	132 ± 37	
(2S,3R)-3-hydroxy-2-stearamidooctadecyl (2-(piperazino)ethyl) phosphate [DHSM-PPZ]	Double peak	0.16 ± 0.01	111 ± 4	80 ± 7
Dioleoylphosphate-Diethylenediamine Conjugate [DOP-DEDA, reference compound]	Single peak	0.11 ± 0.06	100 ± 3	98 ± 7
